{"source": "patent US10947213B1", "about": "(Merck Patent GmbH, priority 2015, dated 2021)", "note": "Counter-ions that a name gives are not always drawn."}
{"target": "T1, TLR7/NFKb HEK cells (Homo sapiens, UniProt Q9NYK1)", "T1 construct": "expressed in transfected cells; host or cells: HEK cells (TLR7/NFKb reporter line)", "T1 sequence (Q9NYK1 27-1049)": "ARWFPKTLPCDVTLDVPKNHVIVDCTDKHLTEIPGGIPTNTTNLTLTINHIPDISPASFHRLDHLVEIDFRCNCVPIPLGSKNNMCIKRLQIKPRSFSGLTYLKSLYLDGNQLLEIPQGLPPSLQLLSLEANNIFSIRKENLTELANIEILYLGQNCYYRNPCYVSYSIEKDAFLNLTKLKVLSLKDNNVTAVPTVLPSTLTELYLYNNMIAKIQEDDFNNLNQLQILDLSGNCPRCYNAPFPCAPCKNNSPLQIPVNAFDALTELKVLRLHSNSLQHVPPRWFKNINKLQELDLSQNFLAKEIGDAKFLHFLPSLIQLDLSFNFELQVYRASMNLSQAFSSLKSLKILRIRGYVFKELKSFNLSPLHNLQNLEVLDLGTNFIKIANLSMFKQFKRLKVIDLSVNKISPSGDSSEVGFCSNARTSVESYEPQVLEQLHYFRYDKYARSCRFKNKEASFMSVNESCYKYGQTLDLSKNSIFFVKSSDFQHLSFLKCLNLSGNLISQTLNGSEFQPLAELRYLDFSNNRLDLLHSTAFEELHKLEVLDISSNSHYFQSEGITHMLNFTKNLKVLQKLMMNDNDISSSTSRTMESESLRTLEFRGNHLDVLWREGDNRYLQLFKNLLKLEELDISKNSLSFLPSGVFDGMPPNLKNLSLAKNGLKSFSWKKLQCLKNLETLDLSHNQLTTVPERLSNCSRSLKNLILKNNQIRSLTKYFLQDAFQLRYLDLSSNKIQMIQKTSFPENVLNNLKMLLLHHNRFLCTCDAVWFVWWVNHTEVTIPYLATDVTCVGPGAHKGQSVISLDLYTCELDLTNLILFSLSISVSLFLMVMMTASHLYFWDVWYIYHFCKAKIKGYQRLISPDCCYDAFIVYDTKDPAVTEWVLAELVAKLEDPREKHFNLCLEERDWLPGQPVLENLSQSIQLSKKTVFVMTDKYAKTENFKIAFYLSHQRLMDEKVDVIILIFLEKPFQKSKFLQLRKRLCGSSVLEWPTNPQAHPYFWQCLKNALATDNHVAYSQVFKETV", "experiment": "HEK Cell Assay (TLR7/NFKb reporter, Steady-Glo luciferase readout)", "format": "cell-based", "settings": "30 min compound preincubation, then R*48 agonist for 5 hours, read-out: Potency", "experimental": "Example 142: HEK Cell Assay\nInto 384 CulturePlates (Corning 3707) was placed 5000 c/w of TLR7/NFKb HEK cells in 30 uL DMEM without Phenil red (gibco #31053) and 10% i.a. FCS and 2 mM L-ZGLutamin. The cells were incubated for 24 h at 37° C., 10% carbon dioxide and 90% relative humidity. 3 uL of controls, standards, and compounds were dispensed into wells, incubated for 30 min then 3 uL of R*48 agonist in 20 mM Hepes was added. After incubation for 5 hours, they were allowed to stand at room temperature for 15 min. To this was added 10 uL of Steady-Glo substrate reagent and shake assay plate for 5 min at 1500 rpm. The assay plate was allowed to sit for 30 min at room temperature and then the plate was read on EnVision.", "units": {"IC50": "nM"}}
{"smiles": "CN1CCN(C(=O)CCC(=O)N[C@H]2C[C@@H](C(F)(F)F)CN(c3ccc(C#N)c4ncccc34)C2)CC1", "note": "(racemic) [Compound 496, cis-N—[-1-(8-Cyano-quinolin-5-yl)-5-trifluoromethyl-piperidin-3-yl]-4-(4-methyl-piperazin-1-yl)-4-oxo-butyramide]", "IC50": "< 1000"}
{"smiles": "C[C@H]1C[C@@H](NC(=O)C(O)C2CC2)CN(c2ccc(C(F)(F)F)c3ncccc23)C1", "note": "(single isomer, unassigned) [Compound 521]", "IC50": "< 1000"}
{"smiles": "C[C@@H]1C[C@H](O)CN(c2ccc(C(F)(F)F)c3ncccc23)C1", "note": "(racemic) [Compound 461, cis-5-Methyl-1-(8-trifluoromethyl-quinolin-5-yl)-piperidin-3-ol]", "IC50": "< 1000"}
{"smiles": "C[C@H]1C[C@@H](NC2CCC(O)CC2)CN(c2ccc(C#N)c3nccnc23)C1", "note": "(single isomer, unassigned) [Compound 135]", "IC50": "< 1000"}
{"smiles": "C[C@H]1C[C@@H](NC(=O)CC2(O)CCCCC2)CN(c2ccc(C(F)(F)F)c3ncccc23)C1", "note": "[Compound 484, 2-(1-Hydroxy-cyclohexyl)-N-[(3R,5S)-5-methyl-1-(8-trifluoromethyl-quinolin-5-yl)-piperidin-3-yl]-acetamide]", "IC50": "< 1000"}
{"smiles": "CC(C(=O)N[C@@H]1C[C@H](C)CN(c2ccc(C(F)(F)F)c3nccnc23)C1)N1CC(F)(F)C1", "note": "(stereo partly drawn) [Compound 299, 2-(3,3-difluoroazetidin-1-yl)-N-[(3R,5S)-5-methyl-1-[8-(trifluoromethyl)quinoxalin-5-yl]piperidin-3-yl]propanamide]", "IC50": "1000 to 10000"}
{"smiles": "C[C@H]1C[C@@H](NC(=O)CC2CCN(C)CC2)CN(c2ccc(C#N)c3nccnc23)C1", "note": "[Compound 232, N-[(3R,5S)-1-(8-cyanoquinoxalin-5-yl)-5-methylpiperidin-3-yl]-2-(1-methylpiperidin-4-yl)acetamide]", "IC50": "< 1000"}
{"smiles": "COc1ccc(N2C[C@@H](C)C[C@@H](NC(=O)C(O)C(C)C)C2)c2nccnc12", "note": "(stereo in doubt) [Compound 201, (2R)-2-hydroxy-N-[(3R,5S)-1-(8-methoxyquinoxalin-5-yl)-5 methylpiperidin-3-yl]-3-methylbutanamide]", "IC50": "1000 to 10000"}
{"smiles": "CC(C)(C)NCC(=O)NCC1CCN(c2ccnc3nccnc23)CC1", "note": "[Compound 406, 2-tert-Butylamino-N-(1-pyrido[2,3-b]pyrazin-8-yl-piperidin-4-ylmethyl)-acetamide]", "IC50": "1000 to 10000"}
{"smiles": "CN(C(=O)CN1CCOCC1)[C@H]1C[C@@H](C2CC2)CN(c2ccc(F)c3ncccc23)C1", "note": "(racemic) [Compound 368, cis-N-[5-cyclopropyl-1-(8-fluoroquinolin-5-yl)piperidin-3-yl]-N-methyl-2-(morpholin-4-yl)acetamide]", "IC50": "> 10000"}
{"smiles": "CC(C)[C@H](O)C(=O)NC1CC(C2CC2)CN(c2ccc(C#N)c3nccnc23)C1", "note": "(single isomer, unassigned) [Compound 174]", "IC50": "> 10000"}
{"smiles": "C[C@H]1C[C@@H](NC(=O)C(C)(C)C2CCN(C)CC2)CN(c2ccc(C(F)(F)F)c3nccnc23)C1", "note": "[Compound 355, 2-methyl-N-[(3R,5S)-5-methyl-1-[8-(trifluoromethyl)quinoxalin-5-yl]piperidin-3-yl]-2-(1-methylpiperidin-4-yl)propanamide]", "IC50": "< 1000"}
{"smiles": "CN1CCCC1C(=O)NCC1CCN(c2ccnc3nccnc23)CC1", "note": "(stereo not shown) [Compound 411, 1-Methyl-pyrrolidine-2-carboxylic acid (1-pyrido[2,3-b]pyrazin-8-yl-piperidin-4-ylmethyl)-amide]", "IC50": "1000 to 10000"}
{"smiles": "CCN(CC)C1CCN(CC2CCN(c3ccnc4ccccc34)CC2)CC1", "note": "[Compound 5, N,N-diethyl-1-((1-(quinolin-4-yl)piperidin-4-yl)methyl)piperidin-4-amine]", "IC50": "1000 to 10000"}
{"smiles": "C[C@@H]1C[C@@H](CN2CCC(N3CCOCC3)CC2)CN(c2ccc(C(F)(F)F)c3ncccc23)C1", "note": "(relative stereo) [Compound 536, trans-5-[3-Methyl-5-(4-morpholin-4-yl-piperidin-1-ylmethyl)-piperidin-1-yl]-8-trifluoromethyl-quinoline]", "IC50": "1000 to 10000"}
{"smiles": "C[C@@H]1CN(c2ccc(C#N)c3nccnc23)C[C@H](CN2CCN(C)CC2)O1", "note": "[Compound 50, 8-((2R,6S)-2-methyl-6-((4-methylpiperazin-1-yl)methyl)morpholino)quinoxaline-5-carbonitrile]", "IC50": "< 1000"}
{"smiles": "CC(C)(C)CC(=O)N[C@H]1CN(c2ccc(C#N)c3nccnc23)CC(C)(C)C1", "note": "[Compound 215, N-[(3R)-1-(8-cyanoquinoxalin-5-yl)-5,5-dimethylpiperidin-3-yl]-3,3-dimethylbutanamide]", "IC50": "< 1000"}
{"smiles": "C[C@H]1C[C@@H](NC(=O)CC2CCN(C)C2)CN(c2ccc(C#N)c3nccnc23)C1", "note": "(stereo partly drawn) [Compound 269, N-[(3R,5S)-1-(8-cyanoquinoxalin-5-yl)-5-methylpiperidin-3-yl]-2-(1-methylpyrrolidin-3-yl)acetamide]", "IC50": "< 1000"}
{"smiles": "CCN(CC)CCNC(=O)C1CCN(c2ccc(C#N)c3ncccc23)CC1", "note": "[Compound 407, 1-(8-Cyano-quinolin-5-yl)-piperidine-4-carboxylic acid (2-diethylamino-ethyl)-amide]", "IC50": "< 1000"}
{"smiles": "N#Cc1ccc(N2C[C@H](NC(=O)CC3CCC(F)(F)CC3)C[C@H](C(F)(F)F)C2)c2cccnc12", "note": "[Compound 584, N-[(3R,5S)-1-(8-Cyano-quinolin-5-yl)-5-trifluoromethyl-piperidin-3-yl]-2-(4,4-difluoro-cyclohexyl)-acetamide]", "IC50": "< 1000"}
{"smiles": "C[C@H]1C[C@@H](N)CN(c2ccc(C(F)(F)F)c3ncccc23)C1", "note": "[Compound 66, (3R,5S)-5-methyl-1-[8-(trifluoromethyl)quinolin-5-yl]piperidin-3-amine]", "IC50": "< 1000"}
{"smiles": "O=C(N[C@@H]1CNC[C@@H]1F)C1CCN(c2ccc(C(F)(F)F)c3ncccc23)CC1", "note": "[Compound 464, 1-(8-Trifluoromethyl-quinolin-5-yl)-piperidine-4-carboxylic acid ((3R,4S)-4-fluoro-pyrrolidin-3-yl)-amide hydrochloride]", "IC50": "< 1000"}
{"smiles": "CCN(CC)CCNC(=O)C1CCN(c2ccc(C#N)c3ncncc23)CC1", "note": "[Compound 397, 1-(8-Cyano-quinazolin-5-yl)-piperidine-4-carboxylic acid (2-diethylamino-ethyl)-amide]", "IC50": "1000 to 10000"}
{"smiles": "C[C@H]1C[C@@H](NC(=O)CC(C)(C)C)CN(c2ccc(C(F)F)c3ncccc23)C1", "note": "[Compound 205, N-[(3R,5S)-1-[8-(difluoromethyl)quinolin-5-yl]-5-methylpiperidin-3-yl]-3,3-dimethylbutanamide]", "IC50": "< 1000"}
{"smiles": "C[C@H]1C[C@@H](NC(=O)[C@H](N)c2ccccc2)CN(c2ccc(C#N)c3nccnc23)C1", "note": "[Compound 119, (2R)-2-amino-N-[(3R,5S)-1-(8-cyanoquinoxalin-5-yl)-5-methylpiperidin-3-yl]-2-phenylacetamide]", "IC50": "< 1000"}
{"smiles": "C[C@H]1C[C@@H](NC2CCN(C)C2=O)CN(c2ccc(C(F)(F)F)c3ncccc23)C1", "note": "(single isomer, unassigned) [Compound 237]", "IC50": "< 1000"}
{"smiles": "C[C@H]1C[C@@H](NC(=O)CN2CCC(F)(F)CC2)CN(c2ccc(C(F)(F)F)c3ncccc23)C1", "note": "[Compound 350, 2-(4,4-difluoropiperidin-1-yl)-N-[(3R,5S)-5-methyl-1-[8-(trifluoromethyl)quinolin-5-yl]piperidin-3-yl]acetamide]", "IC50": "< 1000"}
{"smiles": "CC1(C)C[C@@H](N)CN(c2ccnc3nccnc23)C1", "note": "[Compound 80, (R)-5,5-dimethyl-1-(pyrido[2,3-b]pyrazin-8-yl)piperidin-3-amine]", "IC50": "1000 to 10000"}
{"smiles": "O=C(NC1CCN(CC2CC2)C1)C1CCN(c2ccc(C(F)(F)F)c3ncccc23)CC1", "note": "(single isomer, unassigned) [Compound 445]", "IC50": "< 1000"}
{"smiles": "C[C@@H]1CN(c2ccnc3nccnc23)C[C@H](C(=O)N2CC(N)C2)O1", "note": "[Compound 63, (3-aminoazetidin-1-yl)((2R,6R)-6-methyl-4-(pyrido[2,3-b]pyrazin-8-yl)morpholin-2-yl)methanone]", "IC50": "> 10000"}
{"smiles": "CC(O)C(=O)N[C@@H]1C[C@H](C)CN(c2ccc(C(F)(F)F)c3nccnc23)C1", "note": "(stereo partly drawn) [Compound 292, 2-hydroxy-N-[(3R,5S)-5-methyl-1-[8-(trifluoromethyl)quinoxalin-5-yl]piperidin-3-yl]propanamide]", "IC50": "1000 to 10000"}
